Where a name gives a salt, the structure may show the parent alone.
How the values were obtained:
[1] = biological target: IRAK1 (His-TEV-IRAK1 (194-712)) (Homo sapiens (Human), UniProt P51617); test: IRAK1 enzymatic assay; format: biochemical
Method: IRAK1 is a human purified recombinant enzyme (His-TEV-IRAK1 (194-712)). In this assay, IRAK-1 hydrolyses ATP and autophosphorylates. Measurement of IRAK-1 inhibition was performed in streptavidin coated 384well FlashPlate (PerkinElmer #SMP410A).
His-TEV-IRAK-1 (15 ng/well), ATP (1 μM, [33P]ATP 0.25 μCi/well) and compounds in DMSO (range of concentrations from 20 µM to 1 nM) or controls (2% DMSO) were incubated for 3 hours at 30° C. in assay buffer: Hepes pH7.0 50 mM, Fatty acid-free BSA 0.1%, Dithiothreitol DTT 2 mM, MgCl2 10 mM, EGTA 0.5 mM, Triton-X-100 0.01%. Kinase reaction was stopped by addition of EDTA. Supernatant was discarded, plates were washed three times with 150 mM NaCl and radioactivity was then measured in a Microbeta Trilux reader.

IRAK4 = IRAK4 (Homo sapiens (Human), UniProt Q9NWZ3); test: IRAK4 enzymatic assay; format: biochemical
IRAK4, sequence (Q9NWZ3 whole entry): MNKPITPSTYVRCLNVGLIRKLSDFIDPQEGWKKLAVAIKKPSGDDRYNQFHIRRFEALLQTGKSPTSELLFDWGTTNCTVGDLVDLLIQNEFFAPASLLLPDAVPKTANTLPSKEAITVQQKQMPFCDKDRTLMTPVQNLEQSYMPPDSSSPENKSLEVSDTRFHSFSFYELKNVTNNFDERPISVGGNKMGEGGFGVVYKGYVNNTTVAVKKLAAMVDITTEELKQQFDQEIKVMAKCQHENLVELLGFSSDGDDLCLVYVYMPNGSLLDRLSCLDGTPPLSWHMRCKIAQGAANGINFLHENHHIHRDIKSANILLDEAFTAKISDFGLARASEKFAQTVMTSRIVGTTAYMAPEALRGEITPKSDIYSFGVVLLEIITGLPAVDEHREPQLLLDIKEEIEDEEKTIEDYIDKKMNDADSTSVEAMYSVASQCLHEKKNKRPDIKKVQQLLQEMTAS
Method: IRAK4 is a human purified recombinant enzyme ([…]. IRAK4 hydrolyses ATP, autophosphorylates and phosphorylates a Serine/Threonine generic peptidic substrate (STK: 61ST1BLC from CisBio International based in Bagnols/Cèze FR).
Measurement of IRAK-4 inhibition was performed in streptavidin coated 384well FlashPlate (PerkinElmer #SMP410A). His-TEV-IRAK4 (20 ng/well), ATP (2 μM, [^33P]ATP 0.25 µCi/well), STK1-biotin peptide (300 nM) and compounds in DMSO (range of concentrations from 20 µM to 1 nM) or controls (2% DMSO) were incubated for 3 hours at 30° C. in assay buffer: Hepes pH7.0 50 mM, Fatty acid-free BSA 0.1%, Dithiothreitol DTT 2 mM, MgCl2 10 mM, EGTA 0.5 mM, Tween-20 0.01%, MnCl2 5 mM.
Kinase reaction was stopped by addition of EDTA. Supernatant was discarded, plates were washed three times with 150 mM NaCl and radioactivity was then measured in a Microbeta Trilux reader.

IRAK1 (His-TEV-IRAK1 (194-712)), sequence (P51617 194-712): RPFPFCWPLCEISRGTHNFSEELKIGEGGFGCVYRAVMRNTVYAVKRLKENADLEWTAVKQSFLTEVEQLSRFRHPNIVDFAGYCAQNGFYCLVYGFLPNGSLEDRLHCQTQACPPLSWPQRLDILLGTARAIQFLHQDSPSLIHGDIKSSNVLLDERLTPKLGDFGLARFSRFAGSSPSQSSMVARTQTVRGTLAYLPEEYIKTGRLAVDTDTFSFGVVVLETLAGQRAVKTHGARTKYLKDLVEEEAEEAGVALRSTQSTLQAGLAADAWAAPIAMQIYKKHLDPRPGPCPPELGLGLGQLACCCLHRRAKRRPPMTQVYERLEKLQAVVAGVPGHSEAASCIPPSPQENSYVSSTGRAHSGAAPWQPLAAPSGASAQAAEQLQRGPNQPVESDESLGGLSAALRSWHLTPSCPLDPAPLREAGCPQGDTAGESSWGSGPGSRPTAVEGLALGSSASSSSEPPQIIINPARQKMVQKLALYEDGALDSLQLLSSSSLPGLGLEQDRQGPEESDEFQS

IC50 [1] [µM] | IC50 (IRAK4) [µM] | SMILES
> 5 | 0.1 to 1 | Cn1cc(-c2cccc(-c3ncc(-c4ccn(C)n4)c(NC4CC(F)C4)n3)c2)cn1 (centres unmarked) [Example 80]
1 to 5 | 0.1 to 1 | CC(=O)N1CCC(F)(CNc2nc(-c3cccc(-c4cnn(C)c4)c3)ncc2-c2cnn(C)c2)CC1 [Example 237]
1 to 5 | 1 to 5 | Cn1cc(-c2cccc(-c3ncc(-c4cnn(C)c4)c(NCC4CCCNC4)n3)c2)cn1 (centres unmarked) [Example 4, {5-(1-Methyl-1H-pyrazol-4-yl)-2-[3-(1-methyl-1H-pyrazol-4-yl)-phenyl]-pyrimidin-4-yl}-piperidin-3-ylmethyl-amine Hydrochloride]
0.1 to 1 | 0.1 to 1 | Cn1cc(-c2cccc(-c3ncc(-c4cnn(C)c4)c(NC4CCC4)n3)c2)cn1 [Example 31]
1 to 5 | 0.1 to 1 | CC(=O)N[C@H]1C[C@H](Nc2nc(-c3cccc(-c4cnn(C)c4)c3)ncc2-c2cnn(C)c2)C1 [Example 202]
> 5 | < 0.1 | Cn1cc(-c2cccc(-c3ncc(-c4cnn(C)c4)c(NC4CCC5CN(S(C)(=O)=O)CC54)n3)c2)cn1 (centres unmarked) [Example 168]
0.1 to 1 | < 0.1 | Cn1cc(-c2cccc(-c3ncc(-c4cnn(C)c4)c(NCC4CN(S(C)(=O)=O)CCO4)n3)c2)cn1 (centres unmarked) [Example 172]
0.1 to 1 | < 0.1 | Cn1cc(-c2cccc(-c3ncc(-c4ccn(C)n4)c(N[C@H]4CC[C@@H](N)CC4)n3)c2)cn1 [Example 111]
> 5 | 0.1 to 1 | Cn1cc(-c2cccc(-c3ncc(-c4cnn(C)c4)c(NCC4CCNC4)n3)c2)cn1 (centres unmarked) [Example 145]
0.1 to 1 | 0.1 to 1 | Cn1cc(-c2cccc(-c3ncc(-c4cnn(C)c4)c(NCCC4CCN(S(C)(=O)=O)C4)n3)c2)cn1 (centres unmarked) [Example 175]
> 5 | 1 to 5 | CC(=O)N[C@@H]1CCN(c2nc(-c3cccc(-c4cnn(C)c4)c3)ncc2-c2cnn(C)c2)C1 [Example 246]
> 5 | 1 to 5 | Cn1cc(-c2cccc(-c3cc(C(F)(F)F)c(-c4cnn(C5CCOCC5)c4)cn3)c2)cn1 [Example 23, 2-[3-(1-Methyl-1H-pyrazol-4-yl)-phenyl]-5-[1-(tetrahydro-pyran-4-yl)-1H-pyrazol-4-yl]-4-trifluoromethyl-pyridine]
> 5 | 0.1 to 1 | Cn1cc(-c2cccc(-c3ncc(-c4cnn(C)c4)c(NC[C@@H]4CCC(=O)N4)n3)c2)cn1 [Example 61]
1 to 5 | < 0.1 | Cn1cc(-c2cccc(-c3ncc(-c4cnn(C)c4)c(NCCO)n3)c2)cn1 [Example 96]
> 5 | 0.1 to 1 | Cn1cc(-c2cccc(-c3ncc(-c4ccn(C)n4)c(NC[C@H]4CCNC[C@H]4O)n3)c2)cn1 (racemic) [Example 116]
> 5 | 0.1 to 1 | Cn1cc(-c2cccc(-c3ncc(-c4ccn(C)n4)c(N[C@H]4C[C@@H](N)C4)n3)c2)cn1 [Example 124]
0.1 to 1 | 0.1 to 1 | CC(=O)N1CCC(Nc2nc(-c3cccc(-c4cnn(C)c4)c3)ncc2-c2cnn(C)c2)CC1 [Example 255]
1 to 5 | 1 to 5 | Cn1cc(-c2cccc(-c3ncc(-c4ccn(C)n4)c(NC4CCCC4)n3)c2)cn1 [Example 33]
0.1 to 1 | < 0.1 | Cn1cc(-c2cccc(-c3ncc(-c4cnn(C)c4)c(NC[C@H]4CC[C@H](O)C4)n3)c2)cn1 (racemic) [Example 165]
1 to 5 | < 0.1 | Cn1cc(-c2cccc(-c3ncc(-c4cnn(C)c4)c(NC[C@@H]4CCCC[C@H]4O)n3)c2)cn1 [Example 224]

IC50 [1] [µM] | IC50 (IRAK4) [µM] | SMILES
1 to 5 | 0.1 to 1 | Cn1cc(-c2cccc(-c3ncc(-c4ccn(C)n4)c(NCCO)n3)c2)cn1 [Example 100]
> 5 | 0.1 to 1 | Cn1cc(-c2cccc(-c3ncc(-c4cnn(C)c4)c(N4CC5CNCC5C4)n3)c2)cn1 (centres unmarked) [Example 191]
> 5 | 0.1 to 1 | Cn1cc(-c2cccc(-c3ncc(-c4cnn(C)c4)c(NC4CCC5CNCC54)n3)c2)cn1 (centres unmarked) [Example 150]
> 5 | > 5 | Cn1cc(-c2cccc(-c3ncc(-c4ccn(C)n4)c(NCCN4CCOC4=O)n3)c2)cn1 [Example 91]
> 5 | 0.1 to 1 | Cn1cc(-c2cccc(-c3ncc(-c4cnn(C)c4)c(N[C@H]4C[C@H](N)C4)n3)c2)cn1 [Example 197]
1 to 5 | 0.1 to 1 | CC(=O)N1CCC(CNc2nc(-c3cccc(-c4cnn(C)c4)c3)ncc2-c2cnn(C)c2)C(F)C1 (centres unmarked) [Example 235]
1 to 5 | > 5 | Cn1cc(-c2cccc(-c3ncc(-c4cnn(C)c4)c(N4CCCC(CNC(=O)OC(C)(C)C)C4)n3)c2)cn1 (centres unmarked) [Example 5, (1-{5-(1-Methyl-1H-pyrazol-4-yl)-2-[3-(1-methyl-1H-pyrazol-4-yl)-phenyl]-pyrimidin-4-yl}-piperidin-3-ylmethyl)-carbamic Acid Tert-Butyl Ester]
< 0.1 | < 0.1 | Cn1cc(-c2cccc(-c3ncc(-c4cnn(C)c4)c(NC4CCN(S(C)(=O)=O)CC4)n3)c2)cn1 [Example 14, (1-Methanesulfonyl-piperidin-4-yl)-{5-(1-methyl-1H-pyrazol-4-yl)-2-[3-(1-methyl-1H-pyrazol-4-yl)-phenyl]-pyrimidin-4-yl}-amine]
0.1 to 1 | < 0.1 | Cn1cc(-c2cccc(-c3ncc(-c4cnn(C)c4)c(NC(C)(C)C)n3)c2)cn1 [Example 223]
1 to 5 | < 0.1 | Cn1cc(-c2cccc(-c3ncc(-c4cnn(C)c4)c(NC4CCC(CNS(C)(=O)=O)CC4)n3)c2)cn1 (centres unmarked) [Example 201]
1 to 5 | < 0.1 | Cc1nnc(-c2cnc(-c3cccc(-c4cnn(C)c4)c3)nc2NCC2CN(S(C)(=O)=O)C2)s1 [Example 192]
1 to 5 | 0.1 to 1 | Cn1cc(-c2cccc(-c3ncc(-c4cnn(C)c4)c(NC[C@H]4CCNC4)n3)c2)cn1 [Example 64]
> 5 | > 5 | Cn1cc(-c2cccc(-c3ncc(-c4ccn(C)n4)c(NCCCN4CCOCC4)n3)c2)cn1 [Example 75]
> 5 | 0.1 to 1 | Cn1cc(-c2cccc(-c3ncc(-c4cnn(C)c4)c(N[C@H]4CCNC4)n3)c2)cn1 [Example 121]
> 5 | 1 to 5 | Cn1cc(-c2cccc(-c3ncc(-c4cnn(C)c4)c(N[C@H]4CC[C@@H](N5CCOCC5)CC4)n3)c2)cn1 [Example 263]
> 5 | 1 to 5 | Cn1cc(-c2cccc(-c3ncc(-c4cnn(C)c4)c(N4CCC(CN)C4)n3)c2)cn1 (centres unmarked) [Example 264]
1 to 5 | < 0.1 | Cn1cc(-c2cccc(-c3ncc(-c4cnn(C)c4)c(NCC4CCN(S(C)(=O)=O)CC4F)n3)c2)cn1 (centres unmarked) [Example 234]
> 5 | 0.1 to 1 | Cn1cc(-c2cccc(-c3ncc(-c4ccn(C)n4)c(NCC4CCNC4)n3)c2)cn1 (centres unmarked) [Example 144]
1 to 5 | – | Cn1cc(-c2cccc(-c3ncc(-c4cnn(C)c4)c(NCC4CCCN(C(=O)OC(C)(C)C)C4)n3)c2)cn1 (centres unmarked) [Example 3, 3-({5-(1-Methyl-1H-pyrazol-4-yl)-2-[3-(1-methyl-1H-pyrazol-4-yl)-phenyl]-pyrimidin-4-ylamino}-methyl)-piperidine-1-carboxylic Acid Tert-Butyl Ester]

From patent US9790221B2, “Heteroaryl compounds as IRAK inhibitors and uses thereof” (Merck Patent GmbH, priority 2014, dated 2017)
